Among the test systems are HL-60(TB) leukemia; SR leukemia; OVCAR-4 ovarian; ACHN renal; IGROV1 ovarian; SF-539 CNS; COLO 205 colon; SK-OV-3 ovarian; MDA-MB-231 breast; T-47D breast.
Holding throughout (assay): NCI-60 cell line screen, 48 h

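Assay format: 96-well plates, 48-hour exposure. Here, GI50 denotes the concentration required for 50% inhibition of growth. TGI: concentration producing complete growth inhibition.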

Take `Cc1ccc(NC(=O)CCc2n[nH]c(=S)o2)cc1`: the TGI in the assay with HL-60(TB) leukemia, in the assay with SR leukemia, in the assay with OVCAR-4 ovarian, in the assay on ACHN renal, in the assay with IGROV1 ovarian and in the assay with SF-539 CNS was above 100 µM each time. In the assay on COLO 205 colon, this compound displayed a TGI above 100 µM.
As to `Cc1ccc(S(=O)(=O)N/N=C/C(C)C)cc1`, the TGI in the assay on HL-60(TB) leukemia, in the assay on OVCAR-4 ovarian, in the assay on ACHN renal, with IGROV1 ovarian, in the assay with SF-539 CNS and with SK-OV-3 ovarian was above 100 µM throughout. The same compound came in with a TGI in the assay with COLO 205 colon above 100 µM.
Take `COCCOCCOCCOc1cccc2c1C(=O)c1cccc(OCCOCCOCCOC)c1C2=O`: the TGI in the assay on HL-60(TB) leukemia, in the assay with OVCAR-4 ovarian, in the assay with ACHN renal, with IGROV1 ovarian, with SF-539 CNS and with SK-OV-3 ovarian was above 100 µM in each case. Besides, the TGI with COLO 205 colon is above 100 µM.
As to `c1ccc(OCc2nnc3n2N=C(c2ccccc2)CS3)cc1`, the TGI in the assay on HL-60(TB) leukemia, in the assay with SR leukemia, with OVCAR-4 ovarian, in the assay on ACHN renal, with IGROV1 ovarian and with SF-539 CNS was above 100 µM in each case. The TGI with SK-OV-3 ovarian is above 100 µM.
For the compound `O=C1CC/C(=C/COc2cc(=O)oc3ccccc23)O1`, the GI50 is 11.5 µM with MDA-MB-231 breast; 1.62 µM in the assay on OVCAR-4 ovarian; 2.27 µM in the assay with T-47D breast; 1.29 µM with ACHN renal; 5.05 µM in the assay with IGROV1 ovarian; 6.01 µM in the assay on SF-539 CNS. Also, the GI50 is 22.9 µM in the assay with SK-OV-3 ovarian and 3.61 µM in the assay on COLO 205 colon. Besides, the TGI came to 24.4 µM in the assay on MDA-MB-231 breast; 14.4 µM in the assay on OVCAR-4 ovarian; 19.8 µM in the assay on T-47D breast; 2.55 µM with ACHN renal; 19.5 µM in the assay with IGROV1 ovarian; 21.1 µM in the assay with SF-539 CNS. Also, the TGI in the assay with SK-OV-3 ovarian was above 100 µM; in the assay with COLO 205 colon, 17.5 µM.
As for `CC(=O)c1ccc(NC(=O)COC(=O)c2cccc3c(=O)c4ccccc4[nH]c23)cc1`, the TGI in the assay with HL-60(TB) leukemia was above 100 µM; with SR leukemia it was above 100 µM; in the assay with OVCAR-4 ovarian it was 25.9 µM; in the assay on ACHN renal, above 100 µM; with IGROV1 ovarian, above 100 µM; with SF-539 CNS, 33.9 µM. In addition, the TGI with SK-OV-3 ovarian and with COLO 205 colon was above 100 µM in each case.
Consider `COc1cccc(SSc2cccc(OC)c2C(=O)O)c1C(=O)O`, for which the TGI in the assay with HL-60(TB) leukemia, in the assay on SR leukemia, in the assay on OVCAR-4 ovarian, in the assay on ACHN renal, in the assay with IGROV1 ovarian and with SF-539 CNS was above 100 µM in each case. Besides, the TGI with SK-OV-3 ovarian and in the assay on COLO 205 colon was above 100 µM in each case.
As for `O=c1cccc(-c2cccc(=O)[nH]2)[nH]1`, the TGI in the assay on HL-60(TB) leukemia, in the assay with ACHN renal, in the assay on IGROV1 ovarian, with SF-539 CNS, in the assay on SK-OV-3 ovarian and with COLO 205 colon was above 100 µM in each case.
On to `COc1cc2ccnc3c(=C(SC)SC)c(=O)c(c1OC)c23`, for which the TGI is 5.04 µM with HL-60(TB) leukemia; 30.2 µM in the assay with OVCAR-4 ovarian; 26 µM in the assay on ACHN renal; 47.5 µM in the assay with IGROV1 ovarian; 33 µM with SF-539 CNS; above 100 µM in the assay with SK-OV-3 ovarian. Besides, the TGI with COLO 205 colon is 10.5 µM.
As to `O=C1OC(=O)C2C3C=CC(C12)C1C2C=CC2C31` (configuration not stated), the TGI in the assay on HL-60(TB) leukemia, in the assay on SR leukemia, in the assay with OVCAR-4 ovarian, in the assay with ACHN renal, in the assay with IGROV1 ovarian and in the assay on SF-539 CNS was above 100 µM in each case. Moreover, the TGI in the assay on SK-OV-3 ovarian and with COLO 205 colon was above 100 µM throughout.
With `CCCCCCCCCCCc1c(O)c(=O)c2c(oc3c(=O)c(CCCCCCCCCCC)c(O)c(=O)c3n2-c2ccc(N(C)C)cc2)c1=O`, the TGI is 90.4 µM in the assay on HL-60(TB) leukemia; above 100 µM in the assay on SR leukemia; 30.7 µM in the assay with OVCAR-4 ovarian; 42.8 µM in the assay with ACHN renal; 48.1 µM in the assay with IGROV1 ovarian; 39.7 µM in the assay on SF-539 CNS. Besides, the TGI in the assay on SK-OV-3 ovarian stood at 37.9 µM; with COLO 205 colon it was 38.1 µM.
In the case of `COc1ccc(-c2csc(NC(=O)CN3CCN(c4cc5c(cc4F)c(=O)c(C(=O)O)cn5C4CC4)CC3)n2)cc1`, the GI50 in the assay with SR leukemia is 2.96 µM; in the assay with ACHN renal it was 3.25 µM; in the assay with IGROV1 ovarian, 7 µM; with SF-539 CNS, 3.61 µM; in the assay with SK-OV-3 ovarian it was 2.86 µM. For the same compound, the TGI in the assay on SR leukemia was above 100 µM; in the assay on ACHN renal it was above 100 µM; in the assay on IGROV1 ovarian it was above 100 µM; in the assay on SF-539 CNS, above 100 µM; in the assay with SK-OV-3 ovarian it was 8.32 µM.
In the case of `C=C(C(=C)P(=S)(C(C)C)C(C)C)P(=S)(C(C)C)C(C)C`, the TGI with HL-60(TB) leukemia, with SR leukemia, in the assay with OVCAR-4 ovarian, with ACHN renal, with IGROV1 ovarian and with SF-539 CNS was above 100 µM in each case. The TGI with SK-OV-3 ovarian and in the assay with COLO 205 colon was above 100 µM throughout.
On to `CC(=O)NC(C=O)C(O[C@H](C)C(=O)NC(C)C(=O)NC(CCC(N)=O)C(=O)OCc1ccccc1)C(O)C(O)COC(=O)CCNc1c2ccccc2nc2cccc([N+](=O)[O-])c12` (some centres not stated), for which the TGI with HL-60(TB) leukemia was 31.8 µM; in the assay on SR leukemia it was 2.69 µM; in the assay on OVCAR-4 ovarian it was 25.3 µM; in the assay on IGROV1 ovarian it was above 100 µM; in the assay on SF-539 CNS, 20.2 µM; with COLO 205 colon, 2.74 µM.
On to `CC(=O)c1ccc(NC(=O)C(=O)C(C#N)CC(C)(C)C=O)cc1` (configuration not stated), for which the TGI in the assay on HL-60(TB) leukemia, in the assay with SR leukemia, with OVCAR-4 ovarian, with ACHN renal, with IGROV1 ovarian and in the assay with SF-539 CNS was above 100 µM throughout. For the same compound, the TGI in the assay with SK-OV-3 ovarian and in the assay with COLO 205 colon was above 100 µM throughout.
As for `COc1ccc(NC(=O)CC(=O)n2nc(C)c(N=Nc3ccccc3C(=O)O)c2C)cc1`, the TGI in the assay with HL-60(TB) leukemia is above 100 µM; with OVCAR-4 ovarian it was above 100 µM; with IGROV1 ovarian it was above 100 µM; with SF-539 CNS, above 100 µM; in the assay on SK-OV-3 ovarian, 94.2 µM; in the assay with COLO 205 colon it was above 100 µM.

Values taken from PubChem BioAssay (NCI).
